Experimental findings from paper PMC11619365, “Histone deacetylase 2 and 3 of Sarcoptes scabiei: characterization of a potential drug target” (Microbiology Spectrum, 2024) are described below.

By % inhibition is commonly meant the percentage by which the read-out fell short of the control. By inhibition is commonly meant the change of the read-out against control, counted positive when it falls. Low values mean little suppression, high ones strong suppression.

Each structure is given as a SMILES string.

What all share (type): biochemical
The target of experiment [1] is T1, rSsHDAC-3 (Sarcoptes scabiei, UniProt A0A834REN1).
T1 construct: ORF 411 residues (1,236 bp; amplified fragment printed as around 1,000 bp), pET32a(+) N-terminal Trx/His tag kept (about 18 kDa), 63 kDa on SDS-PAGE, E. coli BL21(DE3), soluble, Ni-NTA; no co-repressor partner
T1 sequence (A0A834REN1 1-411): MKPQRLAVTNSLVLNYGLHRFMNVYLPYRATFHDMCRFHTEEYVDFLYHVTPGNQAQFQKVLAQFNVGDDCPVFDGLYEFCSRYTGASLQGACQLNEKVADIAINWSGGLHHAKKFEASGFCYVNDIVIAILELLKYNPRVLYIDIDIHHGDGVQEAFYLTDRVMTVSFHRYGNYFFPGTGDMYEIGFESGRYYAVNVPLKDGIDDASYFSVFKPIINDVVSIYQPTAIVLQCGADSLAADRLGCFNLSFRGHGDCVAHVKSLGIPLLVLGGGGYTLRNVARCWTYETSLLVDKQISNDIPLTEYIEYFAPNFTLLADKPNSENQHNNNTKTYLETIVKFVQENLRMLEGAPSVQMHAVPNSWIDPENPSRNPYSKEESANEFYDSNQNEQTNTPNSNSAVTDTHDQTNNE
The experiment can be described thus: fluorogenic trypsin-coupled deacetylase assay (excitation […] nm, emission […] nm). Particulars: HEPES pH 8.0, 1 mM MgCl2, 37 °C, 2 h.

In the next experiment the target is T2, rSsHDAC-2 (Sarcoptes scabiei, UniProt A0A834RGW6).
T2 sequence (A0A834RGW6 1-304): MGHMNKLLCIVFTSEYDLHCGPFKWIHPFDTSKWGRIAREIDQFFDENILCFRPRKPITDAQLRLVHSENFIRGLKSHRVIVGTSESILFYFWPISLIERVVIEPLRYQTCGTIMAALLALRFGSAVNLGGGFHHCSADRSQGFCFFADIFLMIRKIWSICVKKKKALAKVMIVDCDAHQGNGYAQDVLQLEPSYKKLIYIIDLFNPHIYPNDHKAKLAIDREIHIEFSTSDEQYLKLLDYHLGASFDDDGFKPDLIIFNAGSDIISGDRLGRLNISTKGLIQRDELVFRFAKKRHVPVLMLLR
The experiment can be described thus: fluorogenic trypsin-coupled deacetylase assay. Conditions: Boc-Lys(ε-Ac)-AMC substrate buffer 100 µM (25 of 50 µL), HEPES pH 8.0, 1 mM MgCl2, 37 °C, 2 h; inhibitor concentration as printed, but 1 µL of it added to 50 µL, so final concentration unclear.

Experiment [2] addresses T1, rSsHDAC-3. Briefly: fluorogenic trypsin-coupled deacetylase assay.

As to `CC(=O)NCCCC[C@H](NC(=O)OC(C)(C)C)C(=O)Nc1ccc2c(C)cc(=O)oc2c1` [Boc-Lys(ε-Ac)-AMC], the “fluorogenic trypsin-coupled deacetylase assay (excitation 355 nm, emission 460 n)” value at rSsHDAC-3 [1] was “whereas the intensity in the rSsHDAC-3 group increased significantly”. Take `COc1ccccc1NC(=O)NCc1ccc(C(=O)NO)cc1` [Elevenostat]: the “% inhibition at 10 μM” value at rSsHDAC-2 is listed as 81.2%. With `Nc1cc(F)ccc1NC(=O)/C=C/c1cnn(C/C=C/c2ccccc2)c1` [RGFP966], the inhibition at 10 µM at rSsHDAC-3 [2] was found to be 68.9%.
